Assay results published in patent US10246414B2, “Allosteric modulators of CB1 cannabinoid receptors” (Northeastern University, priority 2012, dated 2019).

The compounds below were run against CB1 cannabinoid receptors (CNR1 cAMP Hunter cell line) (Homo sapiens, UniProt P21554) (assay: cAMP Hunter (DiscoveRx HitHunter cAMP XS+) allosteric modulation assay with CP55,940 at EC20). Settings: not given.
CB1 cannabinoid receptors (CNR1 cAMP Hunter cell line), sequence (P21554 whole entry): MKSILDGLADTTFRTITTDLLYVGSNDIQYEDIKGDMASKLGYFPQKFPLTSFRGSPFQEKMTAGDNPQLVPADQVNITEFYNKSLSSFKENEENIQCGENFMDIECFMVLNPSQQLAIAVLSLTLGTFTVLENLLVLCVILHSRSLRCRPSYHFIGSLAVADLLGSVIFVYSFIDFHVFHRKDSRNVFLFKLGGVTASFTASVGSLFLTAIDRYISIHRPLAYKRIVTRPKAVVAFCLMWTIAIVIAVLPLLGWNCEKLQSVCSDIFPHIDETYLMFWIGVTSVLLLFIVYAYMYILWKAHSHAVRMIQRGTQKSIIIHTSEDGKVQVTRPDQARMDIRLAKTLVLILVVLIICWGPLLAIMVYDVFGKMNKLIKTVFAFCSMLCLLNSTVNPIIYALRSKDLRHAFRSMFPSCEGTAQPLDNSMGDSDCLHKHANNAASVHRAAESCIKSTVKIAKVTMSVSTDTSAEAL
Assay type: cell-based
Procedure: Once it was established that the cells were healthy and growing normally, cells were passaged from flasks using cell dissociation reagent buffer and seeded into white walled clear bottom 384-well microplates for compound profiling. For profiling, cells were seeded at a density of 10000 cells per well in a total volume of 20 μL and were allowed to adhere and recover overnight prior to compound addition. Cells were treated the following day using the protocols shown below. cAMP modulation was determined using the DiscoveRx HitHunter cAMP XS+ assay.
Media was aspirated from cells and replaced with 10 μL 1:1 HBSS/Hepes: cAMP XS+Ab reagent. Agonist (CP55,940) dose curves were performed to determine the EC20 value for the following testing with compounds. 5 μL of 4× agonist was added to each well with an equal concentration of vehicle present. EC20 agonist concentration was determined directly from agonist dose curve.
For allosteric determination, cells were preincubated with compound followed by agonist challenge at the EC20 concentration. 5 μL of 4× compound was added to cells and incubated at 37° C. for 30 minutes. 5 μL of 4× EC20 agonist was added to cells and incubated at 37° C. for 30 minutes.
Signal Detection: After appropriate compound incubation, assay signal was generated through incubation with 20 μL cAMP XS+ED/CL lysis cocktail for one hour followed by incubation with 20 μL cAMP XS+EA reagent for three hours at room temperature. Microplates were read following signal generation with a PerkinElmer Envision™ instrument for chemiluminescent signal detection.
Data Analysis: Dose curves were plotted using GraphPad Prism or Activity Base. The percentage activity is calculated using the following formula: % Activity=100%×(1−(mean RLU of test sample−mean RLU of MAX control)/(mean RLU of vehicle control [EC20 for PAM]−mean RLU of MAXcontrol).
Agonist (CP55,940) dose curves were performed for the CNR1 PathHunter and cAMP Hunter cell lines. […] The cAMP assay was performed in the presence of 20 μM forskolin (EC80).
In the case of `O=[N+]([O-])C[C@H](c1ccccc1)c1c(-c2ccccc2)[nH]c2ccccc12` (single isomer, unassigned) [Compound 2], the Emax is reported as 75%. For `O=[N+]([O-])C[C@H](c1ccccn1)c1c(-c2ccccc2)[nH]c2ccccc12` (single isomer, unassigned) [Compound 11], the EC50 was 300 nM and the Emax was 120%. With `O=[N+]([O-])CC(c1ccccc1)c1cn(-c2ccccc2)c2ccccc12` (stereo not shown) [Compound 9, 3-(2-Nitro-1-phenylethyl)-1-phenyl-1H-indole] the EC50 was 920 nM and the Emax was 105%. For `O=[N+]([O-])CC(c1ccccc1)c1c(-c2ccccc2)[nH]c2ccc(Cl)cc12` (stereo not shown) [Compound 7, 5-Chloro-3-(2-nitro-1-phenylethyl)-2-phenyl-1H-indole], the EC50 was 1010 nM and the Emax was 44%. With `O=[N+]([O-])CC(c1ccccc1)c1c(-c2ccc(F)c(Cl)c2)[nH]c2ccccc12` (stereo not shown) [Compound 15, 2-(3-Chloro-4-fluorophenyl)-3-(2-nitro-1-phenylethyl)-1H-indole] the EC50 was 411 nM and the Emax was 110%. Compound `O=[N+]([O-])CC(c1ccccn1)c1c(-c2ccccc2)[nH]c2ccccc12` (racemic) [Compound 10, 3-(2-Nitro-1-(pyridin-2-yl)ethyl)-2-phenyl-1H-indole] has an EC50 of 456 nM and an Emax of 96%. `O=[N+]([O-])c1cccc(-c2c(-c3ccccc3)[nH]c3ccccc23)c1` [Compound 8, 3-(3-Nitrophenyl)-2-phenyl-1H-indole] gave an EC50 of over 10000 nM and an Emax of 54%. In the case of `O=[N+]([O-])CC(c1ccccc1)c1c(-c2ccccc2)[nH]c2ccccc12` (racemic) [Compound 1, 3-(2-Nitro-1-phenylethyl)-2-phenyl-1H-indole, reference compound], the Emax is reported as 80%. Compound `O=[N+]([O-])CC(c1ccccc1)c1c(-c2ccc(Cl)cc2)[nH]c2ccccc12` (stereo not shown) [Compound 14, 2-(4-Chlorophenyl)-3-(2-nitro-1-phenylethyl)-1H-indole] has an EC50 of 650 nM and an Emax of 115%. `O=[N+]([O-])CC(c1ccccc1)c1c(-c2ccc3ccccc3c2)[nH]c2ccccc12` (stereo not shown) [Compound 6] gave an EC50 of 744 nM and an Emax of 65%. `O=[N+]([O-])CC(c1ccc(N2CCCCC2)cc1)c1c(-c2ccccc2)[nH]c2ccccc12` (stereo not shown) [Compound 4, 3-(2-Nitro-1-(4-(piperidin-1-yl)phenyl)ethyl)-2-phenyl-1H-indole] was tested, and the EC50 was 590 nM and the Emax was 101%. With `O=[N+]([O-])CC(c1ccc(-c2ccccc2)cc1)c1c(-c2ccccc2)[nH]c2ccccc12` (stereo not shown) [Compound 5, 3-(1-([1,1′-Biphenyl]-4-yl)-2-nitroethyl)-2-phenyl-1H-indole] the EC50 was over 10000 nM and the Emax was 0%. `O=[N+]([O-])C[C@@H](c1ccccn1)c1c(-c2ccccc2)[nH]c2ccccc12` (single isomer, unassigned) [Compound 12] showed an EC50 of 417 nM and an Emax of 119%. In the case of `O=[N+]([O-])C[C@@H](c1ccccc1)c1c(-c2ccccc2)[nH]c2ccccc12` (single isomer, unassigned) [Compound 3], the Emax is reported as 96%. `O=[N+]([O-])CC(c1ccccc1)c1c(-c2ccc(F)cc2)[nH]c2ccccc12` (stereo not shown) [Compound 13, 2-(4-Fluorophenyl)-3-(2-nitro-1-phenylethyl)-1H-indole] gave an EC50 of 327 nM and an Emax of 110%.

What follows are compounds tested on extracellular dopamine levels in nucleus accumbens (assay: In vivo microdialysis, dopamine in shell of nucleus accumbens). Settings: 30 mg/kg IP, rat nucleus accumbens shell, dialysate samples every 20 minutes; ANOVA p=0.325, NS.
Set-up: species or system Sprague-Dawley male rats
Procedure: Concentric microdialysis probes with 2 mm-long dialysis membranes were prepared as described previously (Pontieri, Tanda & DiChiara 1995). Sprague-Dawley male rats were anesthetized with Equithesin and probes were surgically implanted in the shell of nucleus accumbens (coordinates with respect to bregma: anterior, +2.2; lateral, −1.0; vertical −8.0 from dura). Ringer's solution (147 mM NaCl, 2.2 mM CaCl2, 4.0 mM KCl) was pumped through the dialysis probe at a constant flow rate of 1 uL/minute. […] Collection of dialysate samples started after 20 minutes, with samples collected every 20 minutes and immediately analyzed by a high-performance liquid chromatography system coupled to electrochemical detection to quantify dopamine.
Results are presented as group means (±SEM). Microdialysis data were analyzed using two-way ANOVA.
For `O=[N+]([O-])CC(c1ccccc1)c1c(-c2ccccc2)[nH]c2ccccc12` (racemic) [Compound 1, 3-(2-Nitro-1-phenylethyl)-2-phenyl-1H-indole, reference compound], the “change in extracellular dopamine levels after injection” value was “no significant change”.
